Test results taken from US8653075B2, “Therapeutic methods employing substituted piperidines which are CCR3 antagonists” (Boehringer Ingelheim International GmbH, priority 2009, dated 2014).

Molecular target: T1, human chemokine receptor CCR3 (Homo sapiens, UniProt P51677)
T1 construct: expressed in transfected cells; host or cells: K562 cell line (hCCR3-C1 cells), membrane preparation
T1 sequence (P51677 1-355): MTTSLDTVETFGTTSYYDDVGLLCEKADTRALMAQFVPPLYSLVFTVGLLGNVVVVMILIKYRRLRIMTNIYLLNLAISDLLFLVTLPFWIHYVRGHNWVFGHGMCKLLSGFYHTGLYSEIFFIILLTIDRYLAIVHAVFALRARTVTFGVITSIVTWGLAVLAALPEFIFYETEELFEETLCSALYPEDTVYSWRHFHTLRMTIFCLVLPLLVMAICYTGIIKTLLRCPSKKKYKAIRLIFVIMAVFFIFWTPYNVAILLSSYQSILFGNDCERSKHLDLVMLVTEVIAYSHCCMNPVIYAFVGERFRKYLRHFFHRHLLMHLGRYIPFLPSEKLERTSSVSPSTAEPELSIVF
Assay: CCR3 receptor binding assay (SPA, 125I-eotaxin-1 displacement, hCCR3-C1 K562 cell membranes)
Conditions: human Eotaxin-1 at human CCR3-Rezeptor; for inhibition at 1 µM: read-out: CCR3 % inh @ 1 μM; for Ki: dose range 0.1 to 10000 nM
Experimental: The CCR3 receptor binding test is based on a K562 cell line (leukemia myelogenic blast cells) transfected with the human chemokine receptor CCR3 (hCCR3-C1 cells). The cell membranes were prepared by disrupting the hCCR3-C1 cells by […]. The preparation was centrifuged at 400 g 4° C. for 30 min. The supernatant was transferred into fresh tubes followed by a second centrifugation at 48000 g, 4° C. for 1 h. The membranes were re-suspended in the SPA incubation buffer (25 mM HEPES, 25 mM MgCl2 6×H2O, 1 mM CaCl2 2×H2O) without bovine serum albumin and homogenized by passing through a single use needle (Terumo, 23Gx1″). The membranes were stored in aliquots at −80° C.
The CCR3 receptor binding assay was performed in a Scintillation Proximity Assay (SPA) design with the radioligand recombinant human ^125Iodine-eotaxin-1. Cell membranes of hCCR3 C1 cells were again homogenized by passing through a single use needle (Terumo, 23Gx1″) and diluted in SPA incubation buffer in suitable concentrations (0.5-10 μg protein/well) in 96 well microtiter plates (1450-514, Perkin Elmer). The SPA assay was set up in the SPA incubation buffer with a final volume of 200 μl and final concentration of 25 mM HEPES, 25 mM MgCl2 6×H2O, 1 mM CaCl2 2×H2O and 0.1% bovine serum albumin. The SPA assay mixture contained 60 μl of the membrane suspension, 80 μl of Wheat Germ Agglutinin coated PVT beads (organic scintillator, GE Healthcare, RPNQ-0001) 0.2 mg/well), 40 μl of recombinant human ^125Jodine-eotaxin-1 (Biotrend), diluted in SPA buffer to a final concentration of 30.000 dpm per well, and 20 μl of the test compound (dissolved in DMSO dilutions). The SPA assay mixture was incubated for 2 h at room temperature. Bound radioactivity was determined with a scintillation counter (Micro Beta “Trilux”, Wallac). Included were controls for total binding (no displacer added, Bo) and non-specific binding (NSB) by adding unlabelled recombinant human Eotaxin-1 (Biotrend, Cat #300-21) or a reference compound.
Determination of the affinity of a test compound was calculated by subtraction of the non-specific binding (NSB) from the total binding (Bo) or the binding in the presence of the test compound (B) at a given compound concentration. […] The Bo-NSB value was set to 0% inhibition.
% inhibition and Ki values are (human Eotaxin-1 at human CCR3-Rezeptor): […]

Row | inhibition at 1 µM (1 μM test compound) [%] | Ki [nM] | CCR3 % inh @ 1 μM (1 μM test compound, 1 µM) [%] | SMILES
1 | 41 | 1290 |  | COc1cc(OC)nc(CNC(=O)[C@@H]2CCC(=O)N2C2CCN(Cc3ccc(Cl)c(C)c3)CC2)n1 [Example 50]
2 | 28 | 1750 |  | Cc1cc(CN2CCC(N3C(=O)CC[C@H]3C(=O)NCc3cc(C(C)C)no3)CC2)ccc1Cl [Example 52]
3 | 33 | 2010 |  | Cc1cc(CN2CCC(N3C(=O)CC[C@H]3C(=O)NC3CCN(S(C)(=O)=O)C3)CC2)ccc1Cl (some centres unmarked) [Example 53]
4 | 90 | 89 |  | Cc1cc(CN2CCC(N3C(=O)CC[C@@H]3C(=O)N3CCc4cccc(Br)c4C3)CC2)ccc1Cl [Example 54]
5 | 76 | 221 |  | Cc1cc(CN2CCC(N3C(=O)CC[C@H]3C(=O)N3CCc4cccc(F)c4C3)CC2)ccc1Cl [Example 58]
6 | 66 | 402 |  | Cc1cc(CN2CCC(N3C(=O)CC[C@@H]3C(=O)N3CCc4c(F)cccc4C3)CC2)ccc1Cl [Example 59]
7 | 57 | 492 |  | Cc1cc(CN2CCC(N3C(=O)CC[C@H]3C(=O)N3Cc4ccccc4C(C)(C)C3)CC2)ccc1Cl [Example 61]
8 | 63 | 507 |  | Cc1cc(CN2CCC(N3C(=O)CC[C@H]3C(=O)N3CCc4cc(F)ccc4C3)CC2)ccc1Cl [Example 62]
9 | 60 | 545 |  | Cc1cc(CN2CCC(N3C(=O)CC[C@@H]3C(=O)Nc3ccc4c(c3)CC(N(C)C)C4)CC2)ccc1Cl (some centres unmarked) [Example 64]
10 | 48 | 715 |  | Cc1cc(CN2CCC(N3C(=O)CC[C@@H]3C(=O)NCc3cccc4[nH]ccc34)CC2)ccc1Cl [Example 68]
11 | 49 | 810 |  | COc1cccc2c1CCN(C(=O)[C@@H]1CCC(=O)N1C1CCN(Cc3ccc(Cl)c(C)c3)CC1)C2 [Example 71]
12 | 48 | 875 |  | COc1ccc2c(c1)CN(C(=O)[C@@H]1CCC(=O)N1C1CCN(Cc3ccc(Cl)c(C)c3)CC1)CC2 [Example 72]
13 | 48 | 922 |  | Cc1cc(CN2CCC(N3C(=O)CC[C@H]3C(=O)N3CCc4ccc(F)cc4C3)CC2)ccc1Cl [Example 73]
14 | 46 | 927 |  | Cc1cc(CN2CCC(N3C(=O)CC[C@@H]3C(=O)N3CCc4ccc([N+](=O)[O-])cc4C3)CC2)ccc1Cl [Example 74]
15 | 94 | 40 |  | CCOC(=O)c1cc(NC(=O)[C@H]2CCC(=O)N2C2CCN(Cc3ccc(Cl)c(C)c3)CC2)nn1C [Example 95]
16 | 51 | 670 |  | COC(=O)c1ccc2c(c1)CCN(C(=O)[C@H]1CCC(=O)N1C1CCN(Cc3ccc(Cl)c(C)c3)CC1)C2 [Example 96]
17 | 75 | 202 |  | CCOC(=O)Cc1csc(NC(=O)[C@H]2CCC(=O)N2C2CCN(Cc3ccc(Cl)c(C)c3)CC2)n1 [Example 98]

The next lines start with the compound.

Row | SMILES | inhibition at 1 µM (1 μM test compound) [%] | Ki [nM] | CCR3 % inh @ 1 μM (1 μM test compound, 1 µM) [%]
18 | CCCCS(=O)(=O)NC1CCCN(C(=O)[C@@H]2CCC(=O)N2C2CCN(Cc3ccc(Cl)c(C)c3)CC2)C1 (some centres unmarked) [Example 49] | 41 | 1180 | 
19 | Cc1nc(C2(NC(=O)[C@@H]3CCC(=O)N3C3CCN(Cc4ccc(Cl)c(C)c4)CC3)CCCC2)no1 [Example 51] | 30 | 1620 | 
20 | COc1cccc2c1CN(C(=O)[C@@H]1CCC(=O)N1C1CCN(Cc3ccc(Cl)c(C)c3)CC1)CC2 [Example 55] | 78 | 235 | 
21 | Cc1cc(CN2CCC(N3C(=O)CC[C@H]3C(=O)N3CCc4cccc(C(F)(F)F)c4C3)CC2)ccc1Cl [Example 56] | 76 | 254 | 
22 | Cc1cc(CN2CCC(N3C(=O)CC[C@H]3C(=O)N3CCc4c(F)ccc(F)c4C3)CC2)ccc1Cl [Example 57] | 74 | 302 | 
23 | Cc1cc(CN2CCC(N3C(=O)CC[C@H]3C(=O)NC3CCN(c4ccccn4)CC3)CC2)ccc1Cl [Example 60] | 65 | 430 | 
24 | Cc1cc(CN2CCC(N3C(=O)CC[C@@H]3C(=O)N3Cc4ccccc4C3)CC2)ccc1Cl [Example 63] | 60 | 518 | 
25 | Cc1cc(CN2CCC(N3C(=O)CC[C@@H]3C(=O)N3CCc4c(cccc4C(F)(F)F)C3)CC2)ccc1Cl [Example 65] | 57 | 602 | 
26 | Cc1cc(CN2CCC(N3C(=O)CC[C@H]3C(=O)Nc3cccc(Cc4ccncc4)c3)CC2)ccc1Cl [Example 66] | 81 | 658 | 
27 | COCC(NC(=O)C1CCC(=O)N1C1CCN(Cc2ccc(Cl)c(C)c2)CC1)c1nc2ccc(Cl)cc2[nH]1 (centres unmarked) [Example 67] | 52 | 700 | 
28 | Cc1cc(CN2CCC(N3C(=O)CC[C@H]3C(=O)NCc3ccnn3C)CC2)ccc1Cl [Example 69] |  |  | 55
29 | Cc1cc(CN2CCC(N3C(=O)CC[C@H]3C(=O)NCc3ccc(Cl)nc3C)CC2)ccc1Cl [Example 70] | 46 | 791 | 
30 | Cc1cc(CN2C3CCC2CC(N2C(=O)CC[C@@H]2C(=O)Nc2cccc(N(CC(=O)N4CCC4)S(C)(=O)=O)c2)C3)ccc1Cl (some centres unmarked) [Example 75] | 97 | 30 | 
31 | Cc1cc(CN2C3CCC2CC(N2C(=O)CC[C@@H]2C(=O)Nc2cccc(N(CC(=O)N(C)C)S(C)(=O)=O)c2)C3)ccc1Cl (some centres unmarked) [Example 76] | 97 | 37 | 
32 | Cc1cc(CN2C3CCC2CC(N2C(=O)CC[C@@H]2C(=O)Nc2cccc(-c4nnnn4C)c2)C3)ccc1Cl (some centres unmarked) [Example 77] | 96 | 38 | 
33 | Cc1cc(CN2C3CCC2CC(N2C(=O)CC[C@@H]2C(=O)Nc2cccc(N(CC(=O)N(C)C)S(=O)(=O)C4CC4)c2)C3)ccc1Cl (some centres unmarked) [Example 78] | 94 | 50 | 
34 | CCS(=O)(=O)N(CC(=O)N(C)C)c1cccc(NC(=O)[C@H]2CCC(=O)N2C2CC3CCC(C2)N3Cc2ccc(Cl)c(C)c2)c1 (some centres unmarked) [Example 79] | 91 | 52 | 
35 | CCNS(=O)(=O)c1cccc(NC(=O)[C@H]2CCC(=O)N2C2CC3CCC(C2)N3Cc2ccc(Cl)c(C)c2)c1 (some centres unmarked) [Example 80] | 95 | 55 | 
36 | Cc1cc(CN2C3CCC2CC(N2C(=O)CC[C@@H]2C(=O)Nc2cccc(C(N)=O)c2)C3)ccc1Cl (some centres unmarked) [Example 81] | 89 | 111 | 
37 | CNC(=O)c1cccc(NC(=O)[C@H]2CCC(=O)N2C2CC3CCC(C2)N3Cc2ccc(Cl)c(C)c2)c1 (some centres unmarked) [Example 84] | 77 | 232 | 
38 | Cc1cc(CN2C3CCC2CC(N2C(=O)CC[C@@H]2C(=O)Nc2cc(C4CC4)nn2C)C3)ccc1Cl (some centres unmarked) [Example 85] | 68 | 350 | 
39 | Cc1nccc(-c2cccc(NC(=O)[C@H]3CCC(=O)N3C3CC4CCC(C3)N4Cc3ccc(Cl)c(C)c3)c2)n1 (some centres unmarked) [Example 86] | 65 | 419 | 
40 | CCn1cc(NC(=O)[C@H]2CCC(=O)N2C2CCN(Cc3ccc(Cl)c(C)c3)CC2)cc1C(=O)OC [Example 91] | 98 | 18 | 
41 | CCOC(=O)c1cc(NC(=O)[C@H]2CCC(=O)N2C2CCN(Cc3ccc(Cl)c(C)c3)CC2)no1 [Example 93] | 95 | 29 | 
42 | COC(=O)c1cc(NC(=O)[C@H]2CCC(=O)N2C2CCN(Cc3ccc(Cl)c(C)c3)CC2)cn1C [Example 94] | 94 | 52 | 
43 | COC(=O)CC(NC(=O)[C@@H]1CCC(=O)N1C1CCN(Cc2ccc(Cl)c(C)c2)CC1)c1ccccn1 (some centres unmarked) [Example 97] | 50 | 669 | 
44 | COC(=O)c1csc(NC(=O)[C@H]2CCC(=O)N2C2CCN(Cc3ccc(Cl)c(C)c3)CC2)n1 [Example 99] | 91 | 67 | 
45 | CCOC(=O)c1sc(NC(=O)[C@H]2CCC(=O)N2C2CCN(Cc3ccc(Cl)c(C)c3)CC2)nc1C [Example 100] | 100 | 7 | 
